Laboratory results: patent US20190364899A1, “MICROBIOCIDAL OXADIAZOLE DERIVATIVES” (SYNGENTA PARTICIPATIONS AG, priority 2015, published 2019)
Blank lines part the entries; values can stand above or below the molecule they belong to.

Tests used:
[1] = tested on: Puccinia recondita f, Sp. Tritici; experiment: Fungicidal activity against Puccinia recondita f. sp. tritici / wheat / leaf disc preventative (brown rust); type: in vivo; details: foliar, 200 ppm in the applied formulation, wheat leaf segments cv. Kanzler, inoculated 1 day after application, compared to untreated, read-out: disease control
Method: (§1) General examples of leaf disk tests in well plates: Leaf disks or leaf segments of various plant species are cut from plants grown in a greenhouse. The cut leaf disks or segments are placed in multiwell plates (24-well format) onto water agar. The leaf disks are sprayed with a test solution before (preventative) or after (curative) inoculation. Compounds to be tested are prepared as DMSO solutions (max. 10 mg/ml) which are diluted to the appropriate concentration with 0.025% Tween20 just before spraying. The inoculated leaf disks or segments are incubated under defined conditions (temperature, relative humidity, light, etc.) according to the respective test system. A single evaluation of disease level is carried out 3 to 14 days after inoculation, depending on the pathosystem. Percent disease control relative to the untreated check leaf disks or segments is then calculated. General examples of liquid culture tests in well plates: Mycelia fragments or conidia suspensions of a fungus prepared either freshly from liquid cultures of the fungus or from cryogenic storage, are directly mixed into nutrient broth. DMSO solutions of the test compound (max. 10 mg/ml) are diluted with 0.025% Tween20 by a factor of 50 and 10 μl of this solution is pipetted into a microtiter plate (96-well format). The nutrient broth containing the fungal spores/mycelia fragments is then added to give an end concentration of the tested compound. The test plates are incubated in the dark at 24° C. and 96% relative humidity. The inhibition of fungal growth is determined photometrically after 2 to 7 days, depending on the pathosystem, and percent antifungal activity relative to the untreated check is calculated.
Example 1: Fungicidal Activity Against Puccinia recondita f, Sp. Tritici/Wheat/Leaf Disc Preventative (Brown Rust)
Wheat leaf segments cv. Kanzler were placed on agar in multiwell plates (24-well format) and sprayed with the formulated test compound diluted in water. The leaf disks were inoculated with a spore suspension of the fungus 1 day after application. The inoculated leaf segments were incubated at 19° C. and 75% relative humidity (rh) under a light regime of 12 hours light/12 hours darkness in a climate cabinet and the activity of a compound was assessed as percent disease control compared to untreated when an appropriate level of disease damage appears in untreated check leaf segments (7 to 9 days after application).
(§2) The following compounds at 200 ppm in the applied formulation give at least 80% disease control in this test when compared to untreated control leaf disks under the same conditions, which show extensive disease development.

[2] = tested on: Puccinia Recondite f. Sp. Tritici; experiment: Fungicidal activity against Puccinia recondita f. sp. tritici / wheat / leaf disc curative (brown rust); type: in vivo; details: foliar, 24 h, 200 ppm in the applied formulation, wheat leaf segments cv. Kanzler, applied 1 day after inoculation, compared to untreated, read-out: disease control
Method: as §1
Example 2: Fungicidal Activity Against Puccinia Recondite f. Sp. Tritici Wheat/Leaf Disc Curative (Brown Rust)
Wheat leaf segments cv. Kanzler are placed on agar in multiwell plates (24-well format). The leaf segments are then inoculated with a spore suspension of the fungus. Plates were stored in darkness at 19° C. and 75% relative humidity. The formulated test compound diluted in water was applied 1 day after inoculation. The leaf segments were incubated at 19° C. and 75% relative humidity under a light regime of 12 hours light/12 hours darkness in a climate cabinet and the activity of a compound was assessed as percent disease control compared to untreated when an appropriate level of disease damage appears in untreated check leaf segments (6 to 8 days after application).
as §2

[3] = tested on: Glomerella Lagenarium (Colletotrichum Lagenarium); experiment: Fungicidal activity against Glomerella lagenarium (Colletotrichum lagenarium) liquid culture / cucumber / preventative (anthracnose); type: cell-based; details: Colletotrichum orbiculare; 20 ppm in the applied formulation; liquid culture in PDB, growth inhibition measured photometrically 3 to 4 days after application; compared to untreated; read-out: disease control
Method: as §1
Example 4: Fungicidal Activity Against Glomerella Lagenarium (Colletotrichum Lagenarium) Liquid Culture/Cucumber/Preventative (Anthracnose)
Conidia of the fungus from cryogenic storage are directly mixed into nutrient broth (PDB—potato dextrose broth). After placing a (DMSO) solution of test compound into a microtiter plate (96-well format), the nutrient broth containing the fungal spores is added. The test plates are incubated at 24° C. and the inhibition of growth is measured photometrically 3 to 4 days after application.
The following compounds at 20 ppm in the applied formulation give at least 80% disease control in this test when compared to untreated control under the same conditions, which show extensive disease development.

Phakopsora pachyrhizi = experiment: Fungicidal activity against Phakopsora pachyrhizi / soybean / leaf disc preventative (Asian soybean rust); type: in vivo; details: foliar, 200 ppm in the applied formulation, soybean leaf disks, inoculated one day after application, compared to untreated, read-out: disease control
Method: as §1
Example 3: Fungicidal Activity Against Phakopsora pachyrhizi/Soybean/Leaf Disc Preventative (Asian Soybean Rust)
Soybean leaf disks are placed on water agar in multiwell plates (24-well format) and sprayed with the formulated test compound diluted in water. One day after application leaf discs are inoculated by spraying a spore suspension on the lower leaf surface. After an incubation period in a climate cabinet of 24-36 hours in darkness at 20° C. and 75% rh leaf disc are kept at 20° C. with 12 h light/day and 75% rh. The activity of a compound is assessed as percent disease control compared to untreated when an appropriate level of disease damage appears in untreated check leaf disks (12 to 14 days after application).
as §2

Compound: O=C(NCc1ccc(-c2noc(C(F)(F)F)n2)cc1)OCC1CC1 [Compound 1.3, cyclopropylmethyl N-[[4-[5-(trifluoromethyl)-1,2,4-oxadiazol-3-yl]phenyl]methyl] carbamate]
pest or weed control at 200 ppm [1]: ≥ 80%
pest or weed control at 200 ppm [2]: ≥ 80%
pest or weed control at 200 ppm (Phakopsora pachyrhizi): ≥ 80%
inhibition of growth at 20 ppm [3]: ≥ 80%
melting point: 108.2 to 109.8 °C

Compound: O=C(NCc1ccc(-c2noc(C(F)(F)F)n2)cc1)OC1CCOCC1 [Compound 1.2, tetrahydropyran-4-yl N-[[4-[5-(trifluoromethyl)-1,2,4-oxadiazol-3-yl]phenyl]methyl]carbamate]
pest or weed control at 200 ppm [1]: ≥ 80%
pest or weed control at 200 ppm [2]: ≥ 80%
pest or weed control at 200 ppm (Phakopsora pachyrhizi): ≥ 80%
inhibition of growth at 20 ppm [3]: ≥ 80%
melting point: 104 to 106 °C

Compound: CN(C(=O)NCc1ccc(-c2noc(C(F)(F)F)n2)cc1)C1CC1 [Compound 2.22, 1-cyclopropyl-1-methyl-3-[[4-[5-(trifluoromethyl)-1,2,4-oxadiazol-3-yl]phenyl]methyl]urea]
pest or weed control at 200 ppm [1]: ≥ 80%
pest or weed control at 200 ppm [2]: ≥ 80%
pest or weed control at 200 ppm (Phakopsora pachyrhizi): ≥ 80%
inhibition of growth at 20 ppm [3]: ≥ 80%

Compound: CN(CC1CC1)C(=O)NCc1ccc(-c2noc(C(F)(F)F)n2)cc1 [Compound 2.31, 1-(cyclopropylmethyl)-1-methyl-3-[[4-[5-(trifluoromethyl)-1,2,4-oxadiazol-3-yl]phenyl]methyl]urea]
pest or weed control at 200 ppm [1]: ≥ 80%
pest or weed control at 200 ppm [2]: ≥ 80%
pest or weed control at 200 ppm (Phakopsora pachyrhizi): ≥ 80%
inhibition of growth at 20 ppm [3]: ≥ 80%

Compound: O=C(NCc1ccc(-c2noc(C(F)(F)F)n2)cn1)Nc1cccc(F)c1 [Compound 2.17, 1-(3-fluorophenyl)-3-[[5-[5-(trifluoromethyl)-1,2,4-oxadiazol-3-yl]-2-pyridyl]methyl]urea]
pest or weed control at 200 ppm [1]: ≥ 80%
pest or weed control at 200 ppm [2]: ≥ 80%
pest or weed control at 200 ppm (Phakopsora pachyrhizi): ≥ 80%
inhibition of growth at 20 ppm [3]: ≥ 80%

Compound: COCC1(N(C)C(=O)NCc2ccc(-c3noc(C(F)(F)F)n3)cc2)CC1 [Compound 2.28, 1-[1-(methoxymethyl)cyclopropyl]-1-methyl-3-[[4-[5-(trifluoromethyl)-1,2,4-oxadiazol-3-yl]phenyl]methyl]urea]
pest or weed control at 200 ppm [1]: ≥ 80%
pest or weed control at 200 ppm [2]: ≥ 80%
pest or weed control at 200 ppm (Phakopsora pachyrhizi): ≥ 80%
inhibition of growth at 20 ppm [3]: ≥ 80%

Compound: CN(C(=O)NCc1ccc(-c2noc(C(F)(F)F)n2)cc1)C1CCC1 [Compound 2.26, 1-cyclobutyl-1-methyl-3-[[4-[5-(trifluoromethyl)-1,2,4-oxadiazol-3-yl]phenyl]methyl]urea]
pest or weed control at 200 ppm [1]: ≥ 80%
pest or weed control at 200 ppm [2]: ≥ 80%
pest or weed control at 200 ppm (Phakopsora pachyrhizi): ≥ 80%
inhibition of growth at 20 ppm [3]: ≥ 80%

Compound: O=C(NCc1ccc(-c2noc(C(F)(F)F)n2)cc1F)OC1CCOCC1 [Compound 1.1, tetrahydropyran-4-yl N-[[2-fluoro-4-[5-(trifluoromethyl)-1,2,4-oxadiazol-3-yl)phenyl]methyl) carbamate]
pest or weed control at 200 ppm [1]: ≥ 80%
pest or weed control at 200 ppm [2]: ≥ 80%
pest or weed control at 200 ppm (Phakopsora pachyrhizi): ≥ 80%
inhibition of growth at 20 ppm [3]: ≥ 80%
melting point: 105 to 108 °C

Compound: O=C(NCc1ccc(-c2noc(C(F)(F)F)n2)cc1)N1CCCC1 [Compound 3.4, N-[[4-[5-(trifluoromethyl)-l,2,4-oxadiazol-3-yl]phenyl]methyl] pyrrolidine-1-carboxamide]
pest or weed control at 200 ppm [1]: ≥ 80%
pest or weed control at 200 ppm [2]: ≥ 80%
pest or weed control at 200 ppm (Phakopsora pachyrhizi): ≥ 80%
inhibition of growth at 20 ppm [3]: ≥ 80%

Further lines, with some results ahead:

melting point: 82 to 94 °C
Compound: O=C(NCc1ccc(-c2noc(C(F)(F)F)n2)c(F)c1)N1CCOCC1 [Compound 3.3, N-[[3-fluoro-4-[5-(trifluoromethyl)-l,2,4-oxadiazol-3-yl]phenyl]methyl] morpholine-4-carboxamide]
pest or weed control at 200 ppm [1]: ≥ 80%
pest or weed control at 200 ppm [2]: ≥ 80%
inhibition of growth at 20 ppm [3]: ≥ 80%

melting point: 169 to 173 °C
Compound: O=C(NCc1ccc(-c2noc(C(F)(F)F)n2)c(F)c1)NC1CC1 [Compound 2.20, 1-cyclopropyl-3-[[3-fluoro-4-[5-(trifluoromethyl)-1,2,4-oxadiazol-3-yl]phenyl]methyl]urea]
pest or weed control at 200 ppm [1]: ≥ 80%
pest or weed control at 200 ppm [2]: ≥ 80%
pest or weed control at 200 ppm (Phakopsora pachyrhizi): ≥ 80%
inhibition of growth at 20 ppm [3]: ≥ 80%

melting point: 157 to 160 °C
Compound: O=C(NCc1ccc(-c2noc(C(F)(F)F)n2)cc1F)NCC1CC1 [Compound 2.2, 1-(cyclopropylmethyl)-3-[[2-fluoro-4-[5-(trifluoromethyl)-1,2,4-oxadiazol-3-yl]phenyl]methyl]urea]
pest or weed control at 200 ppm (Phakopsora pachyrhizi): ≥ 80%
inhibition of growth at 20 ppm [3]: ≥ 80%

melting point: 147 to 159 °C
Compound: O=C(NCCc1ccc(-c2noc(C(F)(F)F)n2)cc1)NC1CC1 [Compound 2.32, 1-cyclopropyl-3-[2-[4-[5-(trifluoromethyl)-1,2,4-oxadiazol-3-yl]phenyl]ethyl]urea]

melting point: 97 to 102 °C
Compound: O=C(NCc1ccc(-c2noc(C(F)(F)F)n2)cc1)n1ccnc1 [Compound 3.1, N-[[4-[5-(trifluoromethyl)-1,2,4-oxadiazol-3-yl]phenyl]methyl] imidazole-1-carboxamide]
pest or weed control at 200 ppm [1]: ≥ 80%
pest or weed control at 200 ppm [2]: ≥ 80%
pest or weed control at 200 ppm (Phakopsora pachyrhizi): ≥ 80%
inhibition of growth at 20 ppm [3]: ≥ 80%

melting point: 173 to 178 °C
Compound: O=C(NCc1ccc(-c2noc(C(F)(F)F)n2)c(F)c1)Nc1ccccc1Cl [Compound 2.21, 1-(2-chlorophenyl)-3-[[3-fluoro-4-[5-(trifluoromethyl)-1,2,4-oxadiazol-3-yl]phenyl]methyl]urea]
pest or weed control at 200 ppm [1]: ≥ 80%

melting point: 150.1 to 152.4 °C
Compound: O=C(NCc1ccc(-c2noc(C(F)(F)F)n2)cc1F)NC1CC1 [Compound 2.4, 1-cyclopropyl-3-[[2-fluoro-4-[5-(trifluoromethyl)-1,2,4-oxadiazol-3-yl]phenyl]methyl]urea]
pest or weed control at 200 ppm [1]: ≥ 80%
pest or weed control at 200 ppm [2]: ≥ 80%
pest or weed control at 200 ppm (Phakopsora pachyrhizi): ≥ 80%
inhibition of growth at 20 ppm [3]: ≥ 80%

melting point: 158.8 to 165 °C
Compound: O=C(NCc1ccc(-c2noc(C(F)(F)F)n2)cc1)NCC1CC1 [Compound 2.1, 1-(cyclopropylmethyl)-3-[[4-[5-(trifluoromethyl)-1,2,4-oxadiazol-3-yl]phenyl]methyl]urea]
pest or weed control at 200 ppm [1]: ≥ 80%
pest or weed control at 200 ppm (Phakopsora pachyrhizi): ≥ 80%
inhibition of growth at 20 ppm [3]: ≥ 80%

melting point: 112 to 115 °C
Compound: O=C(NCc1ccc(-c2noc(C(F)(F)F)n2)cc1)N1CCOCC1 [Compound 3.2, N-[[4-[5-(trifluoromethyl)-1,2,4-oxadiazol-3-yl]phenyl]methyl] morpholine-4-carboxamide]
pest or weed control at 200 ppm [1]: ≥ 80%
pest or weed control at 200 ppm [2]: ≥ 80%
pest or weed control at 200 ppm (Phakopsora pachyrhizi): ≥ 80%
inhibition of growth at 20 ppm [3]: ≥ 80%
